Data published in patent EP2796042A1, “Compounds promoting plant growth” (Albert-Ludwigs-Universität Freiburg, priority 2013, dated 2014).

What was measured:
[1] = tested on: Arabidopsis thaliana; experiment: Root growth and development of seedlings on AM medium with exogenous compound; assay type: in vivo; conditions: for SULF inhibition on plant development: 100µM compound with 100µM sulfanilamide (Fig. 10F), 6 day-old; for plant-root waving: 100µM supplemented media (Fig. 10B)
Description: To get more insights into the pABA role on plant development, plants were grown in presence of pABA. […] Arabidopsis root waving occurs when plants are grown at the surface of an agar plate that is slightly tilted.

[2] = tested on: Lex::UGT75B; experiment: Rescue of root defects of estradiol-induced Lex::UGT75B plants; assay type: in vivo, Arabidopsis thaliana
From the text: Plant growth relies on auxin gradients maintained by series of auxin influx carriers of the AUXIN RESISTANT 1/ Like AUX1 (AUX/LAX) family, efflux facilitators such as ABCB/multi-drug resistance/P-glycoprotein (ABCB/MDR/PGP), and PIN-FORMED (PIN) proteins. PIN-proteins subcellular localization is highly dynamic and influenced by various internal and external signals, thereby directing and redirecting the intercellular fluxes of auxin[25]. […] During plant response to gravity, auxin transport through AtPIN2 plays a crucial role and pin2 mutants are unable to establish lateral auxin gradient after gravistimulation and therefore are agravitropic.

[3] = tested on: Arabidopsis seedlings (Wild type Col 0); experiment: Safener activity on seedlings grown in presence of inhibitory concentrations of auxin (IAA); assay type: in vivo, Arabidopsis thaliana; conditions: for root growth in the presence of inhibitory concentrations of IAA: 100 µM compound, 2 µM IAA
Description: It was tested whether benzoic acid derivatives can counteract the activity of natural auxins (IAA) (Figure 17 and Figure 18). The experiments were carried out as described for Figure 10.

[4] = tested on: ADCS-RNAi seedlings; experiment: Rescue of root growth arrest after conditional down regulation of GAT-ADCS (estradiol-inducible RNAi); assay type: in vivo, Arabidopsis thaliana; conditions: EST-induced; 50µM compound for 6 days (Fig. 9C)
[5] = tested on: Arabidopsis thaliana; experiment: Plants growing in agar plates supplemented with pABA; assay type: in vivo; conditions: 200 µM pABA in agar plates, vs untreated plants
From the text: (§1) They were 3 replicates for each experiment.

[6] = tested on: Lycopersicum esculentum; experiment: as above; assay type: in vivo; conditions: 200 µM pABA in agar plates, vs untreated plants
From the text: as §1

[7] = tested on: Arabidopsis seedlings; experiment: Activity of benzoic acid derivatives on root growth; assay type: in vivo, Arabidopsis thaliana; conditions: AM supplemented with 100 µM compound
[8] = tested on: Arabidopsis thaliana; experiment: Plants growing in soil and watered or sprayed with a solution of pABA; assay type: in vivo
Description: Arabidopsis plants were grown from seeds in pots in a mixture of soil and vermiculite and watered with tap water for 15 days. Then watering was stopped for 48h until soil looked dried at the surface of the pot. A total of 4 trails containing 51 pots each were divided into 2 parts. […] The other trails were sprayed with solutions described above. […] Plants growing in soil and watered or sprayed with a solution containing pABA

[9] = tested on: Poplar explants; experiment: Induction of adventitious roots on poplar explants; assay type: in vivo; conditions: 200 µM pABA
From the text: Since pABA can stimulate adventitious development in Arabidopsis, we tested whether pABA could also promotes adventitious development on poplar, a commercially important tree.

[10] = cited from earlier work
[11] = tested on: adcs-2; experiment: Homozygous adcs2 rescue experiment with pABA; assay type: in vivo, Arabidopsis thaliana; conditions: opened siliques transplanted on medium supplemented with pABA
From the text: adcs T-DNA mutants (SALK_095283 and SALK_034215) were in Arabidopsis thaliana (L.) Heynh., ecotype Columbia (Col-0) background and ugt75b (AY027263) in Landsberg erecta (Ler).

[12] = tested on: Zea mays; experiment: Plants growing in soil and watered with a solution containing pABA; assay type: in vivo; conditions: watered with 1 mM pABA; n=10
Description: Maize seeds were germinated in Petri® dishes containing deionized-water-humidified Whatman® paper. Germinations of equal size were transferred in pots (one per pot) containing a mixture of soil and vermiculite and watered with tap water for 30 days. Then watering was stopped for 48h until soil looked dried at the surface of the pot.

[13] = tested on: Arabidopsis seedlings; experiment: Root response to gravity after rotating agar plates by 135°; assay type: in vivo, Arabidopsis thaliana; conditions: plates rotated to 135° for 3h (Fig. 10G)

Structure (SMILES): Nc1nc2c(c(=O)[nH]1)N(C=O)C(CNc1ccc(C(=O)N[C@@H](CCC(=O)O)C(=O)O)cc1)CN2 (stereo partly drawn) [5-FTHF, 5-formyl-tetrahydrofolate, reference compound]
- SULF inhibition on plant development [1]: reverted
- plant-root waving [1]: not
- phenocopy of the activity of pABA ([1]; applied at similar concentrations as pABA): did not phenocopy the activity of pABA
- root growth recovery upon strong UGT75B induction ([2]; 20µM EST, 400µM compound (Fig. 14)): very poorly
- effect of supplementation on growth defects of β-estradiol-induced UGT75B plants ([2]; weak induction 0.1µM EST, 200µM 5-FTHF (Fig. 13E)): had no effect
- root growth in the presence of inhibitory concentrations of IAA [3]: fully restored root growth
- rescue of arrested roots [4]: could be rescued

Structure (SMILES): CCN(CC)CCOC(=O)c1ccc(N)cc1 [Procaine, procaine, reference compound]
- root growth in the presence of inhibitory concentrations of IAA [3]: fully restored root growth

Structure (SMILES): Nc1cccc(C(=O)O)c1 [mABA, 3-aminobenzoic acid]
- root growth in the presence of inhibitory concentrations of IAA [3]: fully restored root growth

Structure (SMILES): Nc1ccc(C(=O)O)cc1 [pABA, 4-aminobenzoic acid]
- adventitious roots ([5]; after 10 days): more adventitious roots
- lateral roots ([5]; after 10 days): more lateral roots
- root hairs ([5]; six days after germination): longer root hairs
- adventitious roots ([6]; after 10 days): more adventitious roots
- lateral roots ([6]; after 10 days): more lateral roots
- root hairs ([6]; six days after germination): longer root hairs
- root growth-promoting activity [7]: significant root growth-promoting activity
- greater fresh weight than plant sprayed with only water ([8]; foliar application of 1 mM pABA): 17.54%
- fresh weight of Arabidopsis aerial parts, Sprayed ([8]; sprayed with 1 mM pABA, n=51): 0,62 ± 0,02
- fresh weight of Arabidopsis aerial parts, Watered ([8]; watered with 1 mM pABA, n=51): 1,08 ± 0,03
- induced fresh weight of Arabidopsis aerial parts on average ([8]; watering with 1 mM pABA, vs water): 3.84%
- Adventitious root number ([9]; n=20): 6.15
- Entire plant fresh weight ([9]; n=20): 216 ± 23.69 mg
- Number of leaves ([9]; n=20): 8.09±0.59
- Roots fresh weight ([9]; n=20): 68.68 mg
- Roots fresh weight, percentage in brackets ([9]; presumably increase vs control): 46%
- more adventitious than control ([9]; vs control): 129%
- SULF inhibition on plant development [1]: reverted
- plant-root waving [1]: suppressed
- development of LR and AR ([1]; 100µM supplemented media (Fig. 10C)): induces development of LR and AR
- root hair length ([1]; pABA treatment (Fig. 10D-E)): increases root hair length
- Concentrations that inhibited root growth and promoted lateral and adventitious roots development as well as root hair growth ([1]; wild type seedlings on AM, aerial part not affected): greater than 50 µM
- growth-inhibitory effects of IAA ([3]; 1 µM IAA + 100µM pABA): could antagonize
- root growth in the presence of inhibitory concentrations of IAA [3]: fully restored root growth
- pKa value [10]: about 4.9
- rescue of arrested roots [4]: could be rescued
- development of embryos arrested at the globular stage [11]: could develop further
- Number of leaves [12]: 6.58 ±0.14
- Root weight [12]: 7.85 ± 0.49 g
- gravitropic response of Arabidopsis primary root [13]: increases gravitropic response
